In assay [1] the test system is MRSA (Clinical isolate, the Kitasato Hospital, Japan). The assay can be described thus: Enhancing action of K04-0144D substance on antibiotic activities, broth microdilution method. In kind it is cell-based, methicillin-resistant Staphylococcus aureus. Conditions: for MIC: Staphylococcus aureus, MRSA. In general terms: Dilution methods test growth across graded concentrations, often in twofold steps.

For assay [2], the system named is MRSA 70. The assay can be described thus: MIC, agar plate dilution method. In kind it is cell-based, methicillin-resistant Staphylococcus aureus. To be noted: Staphylococcus aureus; MRSA 70; 37° C., 20 hours; read-out: MIC. The protocol:
(§1) Assay of minimum inhibitory concentration (MIC) was performed according to the agar plate dilution method (Method of Japan Society of Chemotherapy, CHEMOTHERAPY 29, 76-79, 1981).
(§2) Test organisms used were 27 types of microorganisms including clinical isolates of methicillin-resistant Staphylococcus aureus. Each test organism was cultured in Mueller-Hinton broth (2.1% w/v) (DIFCO) at 37° C. for 20 hours, and the cultured cells were suspended to about 10^6 cell counts/ml in the same medium, then was used as the microbial suspension for inoculation. The prepared microbial suspension was smeared by using the microplanter on MHA medium (Mueller-Hinton broth 2.1% (w/v) and agar 1.5%) containing K04-0144A substance, K04-0144B substance or K04-0144C substance, each of which was subjected to two-fold stepwise dilution from 128 μg/ml. After culturing at 37° C. for 20 hours, MIC was determined by macroscopically confirming the growth of microorganisms. Vancomycin, arbekacin and linezolid were used as a comparative control.

Assay [3] has as its system MRSA 92-1191. The assay can be described thus: MIC, agar plate dilution method. Type of assay: cell-based, methicillin-resistant Staphylococcus aureus. To be noted: Staphylococcus aureus; MRSA 92-1191; 37° C., 20 hours; read-out: MIC. The protocol:
as §1, §2

In assay [4] the test system is MRSA N315 IR94 HR-1. The assay can be described thus: MIC, agar plate dilution method. Type of assay: cell-based, methicillin-resistant Staphylococcus aureus. Conditions: Staphylococcus aureus, 20 h. The protocol: as §1, §2
Assay [5] has as its system A. calcoaceticus IFO2552. Briefly: MIC, agar plate dilution method. Type of assay: cell-based. Conditions: Acinetobacter calcoaceticus; A. calcoaceticus IFO2552; 37° C., 20 hours; read-out: MIC. The protocol:
as §1, §2

Assay [6] concerns C. freundii ATCC8090. The assay can be described thus: MIC, agar plate dilution method. Type of assay: cell-based. Conditions: Citrobacter freundii; C. freundii ATCC8090; 37° C., 20 hours; read-out: MIC. The protocol:
as §1, §2

For assay [7], the system named is E. aerogenes NCTC10006. Briefly: MIC, agar plate dilution method. In kind it is cell-based. To be noted: Klebsiella aerogenes; E. aerogenes NCTC10006; 37° C., 20 hours; read-out: MIC. The protocol: as §1, §2
Assay [8] deals with E. cloacae IFO13535. Briefly: MIC, agar plate dilution method. In kind it is cell-based. To be noted: Enterobacter cloacae; E. cloacae IFO13535; 37° C., 20 hours; read-out: MIC. The method, then:
as §1, §2

Assay [9] relates to E. coli NIHJ JC-2. The assay can be described thus: MIC, agar plate dilution method. In kind it is cell-based. Conditions: Escherichia coli, NIHJJC2; E. coli NIHJ JC-2; 37° C., 20 hours; read-out: MIC. The protocol: as §1, §2
Assay [10] concerns E. facecalis NTCT12201(VanA). The assay can be described thus: MIC, agar plate dilution method. In kind it is cell-based. Conditions: E. facecalis NTCT12201(VanA); 37° C., 20 hours; read-out: MIC. The protocol:
as §1, §2

In assay [11] the test system is E. faecalis ATCC21212. Briefly: MIC, agar plate dilution method. Type of assay: cell-based. To be noted: Enterococcus faecalis; E. faecalis ATCC21212; 37° C., 20 hours; read-out: MIC. The method, then:
as §1, §2

Assay [12] concerns E. faecium NTCT12203(VanA). The assay can be described thus: MIC, agar plate dilution method. Type of assay: cell-based. Conditions: Enterococcus faecium; E. faecium NTCT12203(VanA); 37° C., 20 hours; read-out: MIC. The protocol:
as §1, §2

Assay [13] deals with K. pneumoniae NCTN9632. The assay can be described thus: MIC, agar plate dilution method. In kind it is cell-based. Conditions: Klebsiella pneumoniae; K. pneumoniae NCTN9632; 37° C., 20 hours; read-out: MIC. The protocol: as §1, §2
The subject of assay [14] is M. luteus ATCC9341. Briefly: MIC, agar plate dilution method. In kind it is cell-based. To be noted: Micrococcus luteus; M. luteus ATCC9341; 37° C., 20 hours; read-out: MIC. The method, then: as §1, §2
Assay [15] concerns M. morganii IID Kono. Briefly: MIC, agar plate dilution method. Type of assay: cell-based. To be noted: Morganella morganii; M. morganii IID Kono; 37° C., 20 hours; read-out: MIC. The method, then:
as §1, §2

For assay [16], the system named is P. aeruginosa 46001. Briefly: MIC, agar plate dilution method. Type of assay: cell-based. To be noted: Pseudomonas aeruginosa; P. aeruginosa 46001; 37° C., 20 hours; read-out: MIC. The method, then: as §1, §2
The subject of assay [17] is P. aeruginosa E-2. Briefly: MIC, agar plate dilution method. In kind it is cell-based. Conditions: Pseudomonas aeruginosa, E2; P. aeruginosa E-2; 37° C., 20 hours; read-out: MIC. The method, then: as §1, §2
For assay [18], the system named is P. mirabilis IFO3849. Briefly: MIC, agar plate dilution method. To be noted: Proteus mirabilis; P. mirabilis IFO3849; 37° C., 20 hours; read-out: MIC. In kind it is cell-based. The method, then:
as §1, §2

Assay [19] relates to P. vulgaris OX-19. Briefly: MIC, agar plate dilution method. To be noted: Proteus vulgaris, OX19; P. vulgaris OX-19; 37° C., 20 hours; read-out: MIC. Type of assay: cell-based. The method, then: as §1, §2
Assay [20] has as its system S. aureus 8325(pEP2104). The assay can be described thus: MIC, agar plate dilution method. In kind it is cell-based. To be noted: Staphylococcus aureus, 20 h. The protocol:
as §1, §2

Assay [21] concerns S. aureus 8325(pMS97). The assay can be described thus: MIC, agar plate dilution method. Type of assay: cell-based. To be noted: Staphylococcus aureus, 20 h. The protocol:
as §1, §2

For assay [22], the system named is S. aureus FDA209P. Briefly: MIC, agar plate dilution method. Type of assay: cell-based. Conditions: Staphylococcus aureus; S. aureus FDA209P; 37° C., 20 hours; read-out: MIC. The protocol:
as §1, §2

The test system of assay [23] is S. aureus ISP217. Briefly: MIC, agar plate dilution method. In kind it is cell-based. To be noted: Staphylococcus aureus; S. aureus ISP217; 37° C., 20 hours; read-out: MIC. The method, then:
as §1, §2

The subject of assay [24] is S. aureus ISP447. Briefly: MIC, agar plate dilution method. To be noted: Staphylococcus aureus; S. aureus ISP447; 37° C., 20 hours; read-out: MIC. In kind it is cell-based. The protocol: as §1, §2
The test system of assay [25] is S. aureus Smith. Briefly: MIC, agar plate dilution method. In kind it is cell-based. Conditions: Staphylococcus aureus; S. aureus Smith; 37° C., 20 hours; read-out: MIC. The method, then:
as §1, §2

The test system of assay [26] is S. epidermidis IFO12648. The assay can be described thus: MIC, agar plate dilution method. Type of assay: cell-based. To be noted: Staphylococcus epidermidis; S. epidermidis IFO12648; 37° C., 20 hours; read-out: MIC. The method, then: as §1, §2
Assay [27] deals with S. marcescens IFO12648. Briefly: MIC, agar plate dilution method. To be noted: Serratia marcescens; S. marcescens IFO12648; 37° C., 20 hours; read-out: MIC. In kind it is cell-based. The protocol:
as §1, §2

In assay [28] the test system is MRSA N315 IR94. The assay can be described thus: MIC, agar plate dilution method. In kind it is cell-based, methicillin-resistant Staphylococcus aureus. To be noted: Staphylococcus aureus, 20 h. The protocol:
as §1, §2

Each structure is given as a SMILES string. Converted amounts (≈) assume the structure as drawn. Read-outs that look alike come from different tables or passages of the source.

On to `[H]/N=C(/N)N[C@H]1[C@H](O)[C@@H](O)[C@H](O[C@@H]2O[C@@H](C)[C@](O)(C=O)[C@H]2O[C@@H]2O[C@@H](CO)[C@H](O)[C@@H](O)[C@@H]2NC)[C@@H](N/C(N)=N\[H])[C@@H]1O` [Streptomycin, streptomycin], for which the “enhancing action of K04-0144D substance on the antibiotic's activity” value in assay [1] (K04-0144D substance 16 μg/ml) is given as “no enhancing action”. Further, the “Ratio (−/+K04-0144D)” value in assay [1] (MIC alone / MIC with K04-0144D substance 16 μg/ml) was 2. Besides, the MIC in assay [1] (antibiotic alone, without K04-0144D substance, read-out: Minimum Inhibitory Concentration (−)) was found to be 2 µg/mL; in [1] (combined use with K04-0144D substance 16 μg/ml, read-out: Minimum Inhibitory Concentration (+)), 1 µg/mL.
Consider `NCC[C@H](O)C(=O)N[C@@H]1C[C@H](N)[C@@H](O[C@H]2O[C@H](CN)CC[C@H]2N)[C@H](O)[C@H]1O[C@H]1O[C@H](CO)[C@@H](O)[C@H](N)[C@H]1O` [arbekacin, reference compound], for which the MIC in assay [2] was 0.5 µg/mL (≈ 0.905 µM); in assay [3], 0.5 µg/mL (≈ 0.905 µM); in assay [4] it was 1 µg/mL (≈ 1.81 µM); in assay [5], at most 0.25 µg/mL; in [6], 0.5 µg/mL (≈ 0.905 µM); in [7], at most 0.25 µg/mL. The MIC is 0.5 µg/mL (≈ 0.905 µM) in assay [8]; above 32 µg/mL in assay [9]; above 32 µg/mL in [10]; above 32 µg/mL in assay [11]; 8 µg/mL (≈ 14.5 µM) in assay [12]; at most 0.25 µg/mL in assay [13]. For the same compound, the MIC was at most 0.25 µg/mL in assay [14]; 0.5 µg/mL (≈ 0.905 µM) in assay [15]; 1 µg/mL (≈ 1.81 µM) in [16]; 4 µg/mL (≈ 7.24 µM) in [17]; 2 µg/mL (≈ 3.62 µM) in [18]; 2 µg/mL (≈ 3.62 µM) in assay [19]. Further, the MIC in assay [20], in [21], in assay [22], in assay [23], in [24] and in [25] was at most 0.25 µg/mL throughout. The MIC in [26] was at most 0.25 µg/mL; in [27], 1 µg/mL (≈ 1.81 µM).
On to `CC(=O)NC[C@H]1CN(c2ccc(N3CCOCC3)c(F)c2)C(=O)O1` [linezolid, reference compound], for which the MIC in [2] was 0.5 µg/mL (≈ 1.48 µM); in assay [3], 2 µg/mL (≈ 5.93 µM); in assay [28], 1 µg/mL (≈ 2.96 µM); in [5] it was above 32 µg/mL; in assay [6], above 32 µg/mL; in [7], above 32 µg/mL. Further, the MIC in assay [8] was above 32 µg/mL; in [9], above 32 µg/mL; in [10], 2 µg/mL (≈ 5.93 µM); in [11], 2 µg/mL (≈ 5.93 µM); in [12] it was 2 µg/mL (≈ 5.93 µM); in assay [13], above 32 µg/mL. Besides, the MIC in [14] is 2 µg/mL (≈ 5.93 µM); in assay [15] it was above 32 µg/mL; in assay [16] it was above 32 µg/mL; in assay [17], above 32 µg/mL; in [18], above 32 µg/mL; in [19], 8 µg/mL (≈ 23.7 µM). Besides, the MIC was 1 µg/mL (≈ 2.96 µM) in assay [22]; 2 µg/mL (≈ 5.93 µM) in assay [23]; 2 µg/mL (≈ 5.93 µM) in assay [24]; 2 µg/mL (≈ 5.93 µM) in assay [25]; 2 µg/mL (≈ 5.93 µM) in [26]; above 32 µg/mL in [27].

The record behind these values is patent publication US7973147B2, “K04-0144 substance and a process for production thereof” (The Kitasato Institute, priority 2006, dated 2011).
